The results in this text go back to patent publication US20150342901A1, “COMPOSITION COMPRISING NATURAL POLYPHENOL COMPOUNDS, AND COMPOSITION FOR ORAL ADMINISTRATION COMPRISING SAME” (SAMSUNG FINE CHEMICALS CO., LTD., priority 2012, published 2015).

Values after ≈ are worked out from the molar mass of the structure shown.

A short description of this data set: Solubility of poorly water-soluble natural polyphenolic compound (PSNPPC) in water. The settings on record: for solubility: PSNPPC alone, solubility = amount (mg) of solute that dissolves in 1 mL of water at 37° C. The data set is classed as physicochemical. How it is done:
In the present specification. “solubility” refers to an amount (mg) of a solute (PSNPPC) that dissolves in 1 mL of water at 37° C., which is similar to a human body temperature.
Solubility of 3 types of poorly water-soluble natural polyphenolic compounds (PSNPPC) (a product of Naturex SA of France) were measured, and the results thereof are shown in Table 1.

As to `COc1cc(/C=C/C(=O)CC(=O)/C=C/c2ccc(O)c(OC)c2)ccc1O` [Curcumin, curcumin], the solubility (as a rule, how much of the substance goes into solution per volume) worked out at 4 µg/mL (≈ 10.9 µM).

`Oc1ccc(C=Cc2cc(O)cc(O)c2)cc1` [Resveratrol, resveratrol] displayed a solubility of 87 µg/mL (≈ 381 µM). As for silymarin, the “Solubility (@37° C.)” value is given as 0.008.
